Columns and labels:
Setaria [1] = test: Pre-emergence greenhouse pot trial, Setaria (Example V, Table V); type: in vivo
Method: (§1) The results and also the results of all following examples were evaluated 4 weeks later according to the following scheme:
(§2) In a greenhouse the compounds to be tested were sprayed on the surface of the soil directly after sowing. […] Dicotyledonous crop plants (the same as used in Example I) were not damaged by the applied amounts.
(§3) Effect on weed grasses in a pre-emergence process (evalua-
(§4) tion scheme) experiment in pots in the greenhouse.

wild oat [2] = test: Field trial in wild oat, post-emergence treatment (Example VI, Table VI); type: in vivo; settings: for efficiency in % (counting of panicles) / evaluation 5 weeks after treatment: post-emergence
Method: In a field trial compound 1a of the invention was sprayed in the form of a 36% wettable powder formulation onto wild oat (single system, natural growth) after the plants had developed 3 or 4 leaves.
Three lots each were treated with different concentrations of the active compound and the comparative compound, the amount of spray liquor applied being 600 liters per hectare. Besides the usual visual evaluation at the end of the trial, the number of panicles per square meter was counted. In the untreated lots 400 to 500 panicles were counted per square meter, i.e. the field was heavily infected.
The relations are still more distinct when the amount of active compound required for a 90% effect is determined by the probit method (graphical evaluation) mentioned in Example II.

wild oat [3] = test: Post-emergence trial in the greenhouse, wild oat (Example VII, Table VII); type: in vivo; settings: 31 kg/hectare, emulsion concentrate, 4 weeks after treatment
Method: as §1
In a greenhouse some of the compounds of the invention were sprayed on plants of wild oat, the compounds being used as emulsion concentrates.
Post-emergence trial in the greenhouse
Effect on wild oat 4 weeks after treatment
Dose 31 kg/hectare of active compound (as emulsion

spring barley = test: Post-emergence treatment, pots on a site without roof, spring barley (Example IV, Table IV); type: in vivo; settings: emulsion concentrate; note: ranges in brackets are in %
Method: as §1
(§5) In summer a further experiment was carried through under similar conditions to compare the effect of compound 1a with that of comparative compound A. Both compounds were used in the form of an emulsion concentrate (Table IV).
(§6) Post-emergence treatment (evaluation scheme); experiment
(§7) in pots on a site without roof

weed grasses = test: Pre-emergence greenhouse pot trial, weed grasses overall (Example V); type: in vivo; settings: in words
Method: as §1, §2, §3, §4

Alopecurus myos. = test: Post-emergence treatment, pots on a site without roof, blackgrass (Example IV, Table IV); type: in vivo, annual black-grass (Alopecurus); settings: for Effect (evaluation scheme), Alopecurus myos.: post-emergence, emulsion concentrate
Method: as §1, §5, §6, §7

Avena fatua [4] = test: Post emergence treatment in two stages, boxes on a site without roof, wild oat (Table III); type: in vivo; settings: 0.9 kg/hectare
Method: as §1
(§8) Effect on wild oat and sugar beet
(§9) Post emergence treatment in two stages of development
(§10) boxes 20 × 24 × 22 cm in size on a site without roof

spring wheat [5] = test: Post-emergence treatment, pots on a site without roof, spring wheat (Example IV, Table IV); type: in vivo; settings: emulsion concentrate; note: ranges in brackets are in %
Method: as §1, §5, §6, §7

spring wheat [6] = test: Post-emergence trial in two stages, pots on a site without roof, spring wheat (Example II, Table II); type: in vivo
Method: as §1
(§11) The amounts of active compound required for a 90% effect, determined by the probit method (cf. Bliss, Annals of Applied Biology, 22 1935), show very distincly the difference between the compound of the invention and the comparative compound. […] None of the compounds did any harm to the wheat.
(§12) Post-emergence treatment in two different stages of development
(§13) Experiments in pots on a site without roof
(§14) stage 1: 3 to 4 leaves with beginning growth of side
(§15) stage 2: main tillering to terminated tillering.

Avena fatua [7] = test: Post-emergence trial in two stages, pots on a site without roof, wild oat (Example II, Table II); type: in vivo; settings: for 90% effective dose: probit method; for Effect on wild oat (evaluation), Avena fatua: post-emergence
Method: as §1, §11, §12, §13, §14, §15

Echinochloa [8] = test: Post-emergence greenhouse pot trial, Echinochloa (Example I, Table I); type: in vivo; settings: greenhouse pots, 4 weeks
Method: (§16) Seeds of weed grasses were sown in pots filled with loamy soil and placed in the greenhouse for germination and emergence. As soon as the plants had developed 3 or 4 leaves, they were sprayed with wettable powder formulations, suspended in water, of compounds according to the invention.
as §1
(§17) 4 is still considered an acceptable herbicidal effect in weeds and a satisfactory preserving effect in crop plants (cf. Bolle, Nachrichtenblatt des Deutschen Pflanzenschutzdienstes 16, 1964, pages 92-94).
(§18) Effect on weed grasses in a post-emergence trial in pots
(§19) in the greenhouse (Evaluation scheme)

Lolium [9] = test: Pre-emergence greenhouse pot trial, Lolium (Example V, Table V); type: in vivo
Method: as §1, §2, §3, §4

Alopecurus = test: Post-emergence greenhouse pot trial, annual blackgrass (Example I, Table I); type: in vivo, annual blackgrass (Alopecurus); settings: greenhouse pots, 4 weeks
Method: as §16, §1, §17, §18, §19

sugar beet = test: Post emergence treatment in two stages, boxes on a site without roof, sugar beet (Table III); type: in vivo; settings: 0.9 kg/hectare
Method: as §1, §8, §9, §10

Digitaria [10] = test: Post-emergence greenhouse pot trial, Digitaria (Example I, Table I); type: in vivo; settings: greenhouse pots, 4 weeks
Method: as §16, §1, §17, §18, §19

Avena ludoviciana = test: Post-emergence treatment, pots on a site without roof, Avena ludoviciana (Example IV, Table IV); type: in vivo; settings: for Effect (evaluation scheme), Avena ludoviciana: post-emergence, emulsion concentrate
Method: as §1, §5, §6, §7

Lolium [11] = test: Post-emergence greenhouse pot trial, Lolium (Example I, Table I); type: in vivo; settings: greenhouse pots, 4 weeks
Method: as §16, §1, §17, §18, §19

Avena fatua [12] = test: Post-emergence treatment, pots on a site without roof, Avena fatua (Example IV, Table IV); type: in vivo; settings: for Effect (evaluation scheme), Avena fatua: post-emergence, emulsion concentrate
Method: as §1, §5, §6, §7

Digitaria [13] = test: Pre-emergence greenhouse pot trial, Digitaria (Example V, Table V); type: in vivo
Method: as §1, §2, §3, §4

Setaria [14] = test: Post-emergence greenhouse pot trial, Setaria (Example I, Table I); type: in vivo; settings: greenhouse pots, 4 weeks
Method: as §16, §1, §17, §18, §19

Echinochloa [15] = test: Pre-emergence greenhouse pot trial, Echinochloa (Example V, Table V); type: in vivo
Method: as §1, §2, §3, §4

- evaluation scheme, spring barley (spring barley; 0.225 kg/hectare): 1 (0)
- evaluation scheme, spring barley (spring barley; 0.45 kg/hectare): 1 (0)
- evaluation scheme, spring barley (spring barley; 0.9 kg/hectare): 1 (0)
- evaluation scheme, spring wheat (spring wheat [5]; 0.225 kg/hectare): 1 (0)
- evaluation scheme, spring wheat (spring wheat [5]; 0.45 kg/hectare): 1 (0)
- evaluation scheme, spring wheat (spring wheat [5]; 0.9 kg/hectare): 1 (0)
- evaluation, spring wheat (spring wheat [6]; stage 1, 0.112 kg/hectare): 1 (0)
- evaluation, spring wheat (spring wheat [6]; stage 1, 0.225 kg/hectare): 1 (0)
- evaluation, spring wheat (spring wheat [6]; stage 1, 0.45 kg/hectare): 1 (0)
- evaluation, spring wheat (spring wheat [6]; stage 1, 0.9 kg/hectare): 2 (0 to 2.5)
- evaluation, spring wheat (spring wheat [6]; stage 2, 0.112 kg/hectare): 1 (0)
- evaluation, spring wheat (spring wheat [6]; stage 2, 0.225 kg/hectare): 1 (0)
- evaluation, spring wheat (spring wheat [6]; stage 2, 0.45 kg/hectare): 1 (0)
- evaluation, spring wheat (spring wheat [6]; stage 2, 0.9 kg/hectare): 2 (0 to 2.5)
- sugar beet number (sugar beet; 2-leaf stage): 2 (0 to 2.5)
- sugar beet number (sugar beet; 4-leaf stage): 2 (0 to 2.5)
Structure (SMILES): COC(=O)C(C)Oc1ccc(Oc2ccc(Br)cc2Cl)cc1 (stereo not drawn) [Compound 1a, Methyl-4-(2'-chloro-4'-bromophenoxy)-α-phenoxy-propionate]
- Effect on weed grasses (evaluation scheme), Setaria (Setaria [1]; 0.62 kg/hectare): 6 (75.0 to <85.0)
- Effect on weed grasses (evaluation scheme), Setaria (Setaria [1]; 1.25 kg/hectare): 4 (90.0 to <95.0)
- efficiency in % (counting of panicles) (wild oat [2]; 0.54 kg/hectare): 79.0%
- evaluation 5 weeks after treatment (wild oat [2]; 0.54 kg/hectare): 7 (65.0 to <75.0)
- efficiency in % (counting of panicles) (wild oat [2]; 0.72 kg/hectare): 90.0%
- evaluation 5 weeks after treatment (wild oat [2]; 0.72 kg/hectare): 5 (85.0 to <90.0)
- efficiency in % (counting of panicles) (wild oat [2]; 0.90 kg/hectare): 97.4%
- evaluation 5 weeks after treatment (wild oat [2]; 0.90 kg/hectare): 3 (95.0 to <.97.5)
- amount sufficient compared with the comparative compound (90% effect) (wild oat [2]; probit method): about 1/4
- amount of active compound required for a 90% effect (wild oat [2]; without wetting agent, probit method (graphical evaluation)): 0.68 kg/hectare
- effect (number) on wild oat (wild oat [3]): 1 (100)
- effect in pre-emergence treatment compared with comparative compound A (weed grasses): better effect
- Effect (evaluation scheme), Alopecurus myos. (Alopecurus myos.; 0.225 kg/hectare): 5 (85.0 to <90.0)
- Effect (evaluation scheme), Alopecurus myos. (Alopecurus myos.; 0.45 kg/hectare): 3 (95.0 to <.97.5)
- Effect (evaluation scheme), Alopecurus myos. (Alopecurus myos.; 0.9 kg/hectare): 1 (100)
- response of annual black-grass (Alopecurus) (Alopecurus myos.; in words): responded very well
- Effect on wild oat, Avena fatua, number (Avena fatua [4]; 3-leaf stage): 1 (100)
- degree of damage % (evaluation by weight), Avena fatua (Avena fatua [4]; 3-leaf stage): 100%
- Effect on wild oat, Avena fatua, number (Avena fatua [4]; start of tillering): 3 to 4
- degree of damage % (evaluation by weight), Avena fatua (Avena fatua [4]; start of tillering): 96%
- dosage sufficient with respect to the comparative compound (90% effect) (Avena fatua [7]; applied in the second stage): about half the dosage
- effect on wild oat compared with compound A (Avena fatua [7]; emulsion concentrate of 36% strength, in words): better effect on wild oat than compound A
- 90% effective dose (Avena fatua [7]; stage 1 (3 to 4 leaves with beginning growth of side)): 0.34 kg per hectare
- Effect on wild oat (evaluation), Avena fatua (Avena fatua [7]; stage 1, 0.112 kg/hectare): 6 (75.0 to <85.0)
- Effect on wild oat (evaluation), Avena fatua (Avena fatua [7]; stage 1, 0.225 kg/hectare): 5 (85.0 to <90.0)
- Effect on wild oat (evaluation), Avena fatua (Avena fatua [7]; stage 1, 0.45 kg/hectare): 4 (90.0 to <95.0)
- Effect on wild oat (evaluation), Avena fatua (Avena fatua [7]; stage 1, 0.9 kg/hectare): 3 (95.0 to <.97.5)
- 90% effective dose (Avena fatua [7]; stage 2 (main tillering to terminated tillering)): 0.45 kg per hectare
- Effect on wild oat (evaluation), Avena fatua (Avena fatua [7]; stage 2, 0.112 kg/hectare): 7 (65.0 to <75.0)
- Effect on wild oat (evaluation), Avena fatua (Avena fatua [7]; stage 2, 0.225 kg/hectare): 6 (75.0 to <85.0)
- Effect on wild oat (evaluation), Avena fatua (Avena fatua [7]; stage 2, 0.45 kg/hectare): 4 (90.0 to <95.0)
- Effect on wild oat (evaluation), Avena fatua (Avena fatua [7]; stage 2, 0.9 kg/hectare): 3 (95.0 to <.97.5)
- Effect on weed grasses (evaluation scheme number), Echinochloa (Echinochloa [8]; 0.15 kg/hectare): 2 (97.5 to <100)
- Effect on weed grasses (evaluation scheme number), Echinochloa (Echinochloa [8]; 0.62 kg/hectare): 2 (97.5 to <100)
- Effect on weed grasses (evaluation scheme number), Echinochloa (Echinochloa [8]; 2.5 kg/hectare): 1 (100)
- Effect on weed grasses (evaluation scheme), Lolium (Lolium [9]; 0.62 kg/hectare): 6 (75.0 to <85.0)
- Effect on weed grasses (evaluation scheme), Lolium (Lolium [9]; 1.25 kg/hectare): 3 (95.0 to <.97.5)
- Effect on weed grasses (evaluation scheme number), Alopecurus (Alopecurus; 0.15 kg/hectare): 3 (95.0 to <.97.5)
- Effect on weed grasses (evaluation scheme number), Alopecurus (Alopecurus; 0.62 kg/hectare): 1 (100)
- Effect on weed grasses (evaluation scheme number), Alopecurus (Alopecurus; 2.5 kg/hectare): 1 (100)
- Effect on weed grasses (evaluation scheme number), Digitaria (Digitaria [10]; 0.15 kg/hectare): 6 (75.0 to <85.0)
- Effect on weed grasses (evaluation scheme number), Digitaria (Digitaria [10]; 0.62 kg/hectare): 1 (100)
- Effect on weed grasses (evaluation scheme number), Digitaria (Digitaria [10]; 2.5 kg/hectare): 1 (100)
- Effect (evaluation scheme), Avena ludoviciana (Avena ludoviciana; 0.225 kg/hectare): 6 (75.0 to <85.0)
- Effect (evaluation scheme), Avena ludoviciana (Avena ludoviciana; 0.45 kg/hectare): 5 (85.0 to <90.0)
- Effect (evaluation scheme), Avena ludoviciana (Avena ludoviciana; 0.9 kg/hectare): 4 (90.0 to <95.0)
- effect on Avena ludoviciana compared with comparative compound (Avena ludoviciana; in words): distinctly better effect than the comparative compound
- Effect on weed grasses (evaluation scheme number), Lolium (Lolium [11]; 0.15 kg/hectare): 5 (85.0 to <90.0)
- Effect on weed grasses (evaluation scheme number), Lolium (Lolium [11]; 0.62 kg/hectare): 3 (95.0 to <.97.5)
- Effect on weed grasses (evaluation scheme number), Lolium (Lolium [11]; 2.5 kg/hectare): 2 (97.5 to <100)
- Effect (evaluation scheme), Avena fatua (Avena fatua [12]; 0.225 kg/hectare): 7 (65.0 to <75.0)
- Effect (evaluation scheme), Avena fatua (Avena fatua [12]; 0.45 kg/hectare): 6 (75.0 to <85.0)
- Effect (evaluation scheme), Avena fatua (Avena fatua [12]; 0.9 kg/hectare): 5 (85.0 to <90.0)
- effect on Avena fatua compared with comparative compound (Avena fatua [12]; in words): distinctly better effect than the comparative compound
- Effect on weed grasses (evaluation scheme), Digitaria (Digitaria [13]; 0.62 kg/hectare): 4 (90.0 to <95.0)
- Effect on weed grasses (evaluation scheme), Digitaria (Digitaria [13]; 1.25 kg/hectare): 2 (97.5 to <100)
- Effect on weed grasses (evaluation scheme number), Setaria (Setaria [14]; 0.15 kg/hectare): 2 (97.5 to <100)
- Effect on weed grasses (evaluation scheme number), Setaria (Setaria [14]; 0.62 kg/hectare): 1 (100)
- Effect on weed grasses (evaluation scheme number), Setaria (Setaria [14]; 2.5 kg/hectare): 1 (100)
- Effect on weed grasses (evaluation scheme), Echinochloa (Echinochloa [15]; 0.62 kg/hectare): 3 (95.0 to <.97.5)
- Effect on weed grasses (evaluation scheme), Echinochloa (Echinochloa [15]; 1.25 kg/hectare): 2 (97.5 to <100)

Reference: US4370489A, “Herbicidal compounds” (Hoechst Aktiengesellschaft, priority 1976, dated 1983)
